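Five concentrations, 48 hours, 96-well plates. The concentration for 50% growth inhibition is given as GI50.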 Activity calls are given as the source filed them. Cut-off read from the data, not from the text of the source: active = GI50 up to about 1.1 µM and inactive = higher.
Legend:
Assay in all cases: NCI-60 cell line screen, 48 h
786-0 = test system: 786-0
A498 = test system: A498
A549 = test system: A549
ACHN = test system: ACHN
BT-549 = test system: BT-549
CAKI-1 = test system: CAKI-1
CCRF-CEM = test system: CCRF-CEM
COLO 205 = test system: COLO 205
DLD-1 = test system: DLD-1
DMS-114 = test system: DMS-114
DMS-273 = test system: DMS-273
DU-145 = test system: DU-145
EKVX = test system: EKVX
HCC 2998 = test system: HCC 2998
HCT-116 = test system: HCT-116
HCT-15 = test system: HCT-15
HL-60 = test system: HL-60
HOP-18 = test system: HOP-18
HOP-62 = test system: HOP-62
HOP-92 = test system: HOP-92
HT-29 = test system: HT-29
Hs-578T = test system: Hs-578T
IGROV-1 = test system: IGROV-1
K562 = test system: K562
KM-20L2 = test system: KM-20L2
KM12 = test system: KM12
LOX IMVI = test system: LOX IMVI
LXFL 529 = test system: LXFL 529
M14 = test system: M14
M19-MEL = test system: M19-MEL
MCF7 = test system: MCF7
MDA-MB-231 = test system: MDA-MB-231
MDA-MB-435 = test system: MDA-MB-435
MDA-N = test system: MDA-N
MOLT-4 = test system: MOLT-4
Malme-3M = test system: Malme-3M
NCI-H226 = test system: NCI-H226
NCI-H23 = test system: NCI-H23
NCI-H460 = test system: NCI-H460
NCI-H522 = test system: NCI-H522
NCI/ADR-RES = test system: NCI/ADR-RES
OVCAR-3 = test system: OVCAR-3
OVCAR-4 = test system: OVCAR-4
OVCAR-5 = test system: OVCAR-5
OVCAR-8 = test system: OVCAR-8
PC-3 = test system: PC-3
RPMI-8226 = test system: RPMI-8226
RXF 393 = test system: RXF 393
RXF 631 = test system: RXF 631
SF-268 = test system: SF-268
SF-295 = test system: SF-295
SF-539 = test system: SF-539
SK-MEL-28 = test system: SK-MEL-28
SK-MEL-2 = test system: SK-MEL-2
SK-MEL-5 = test system: SK-MEL-5
SK-OV-3 = test system: SK-OV-3
SN12C = test system: SN12C
SNB-19 = test system: SNB-19
SNB-75 = test system: SNB-75
SNB-78 = test system: SNB-78
SR = test system: SR
SW-620 = test system: SW-620
T47D = test system: T47D
TK-10 = test system: TK-10
U-251 = test system: U-251
UACC-257 = test system: UACC-257
UACC-62 = test system: UACC-62
UO-31 = test system: UO-31
XF498 = test system: XF498

## CN1C(=O)CC2(C)c3cc(O)ccc3N(C)C12 (centres undefined)
786-0
  GI50: 15 µM (inactive)
A498
  GI50: 43 µM (inactive)
A549
  GI50: > 68.5 µM (inactive)
ACHN
  GI50: 63.2 µM (inactive)
BT-549
  GI50: 16.9 µM (inactive)
CAKI-1
  GI50: 23.8 µM (inactive)
CCRF-CEM
  GI50: 13.2 µM (inactive)
COLO 205
  GI50: 36.8 µM (inactive)
DLD-1
  GI50: > 89.3 µM (inactive)
DMS-114
  GI50: 38.9 µM (inactive)
DMS-273
  GI50: > 100 µM (inactive)
DU-145
  GI50: > 40.4 µM (inactive)
EKVX
  GI50: 37.8 µM (inactive)
HCC 2998
  GI50: > 100 µM (inactive)
HCT-116
  GI50: 19.9 µM (inactive)
HCT-15
  GI50: 36 µM
HL-60
  GI50: 21.2 µM (inactive)
HOP-18
  GI50: > 100 µM (inactive)
HOP-62
  GI50: 41 µM (inactive)
HOP-92
  GI50: 56.9 µM (inactive)
HT-29
  GI50: 30.5 µM (inactive)
Hs-578T
  GI50: > 48.9 µM (inactive)
IGROV-1
  GI50: 46.6 µM (inactive)
K562
  GI50: 18.5 µM (inactive)
KM-20L2
  GI50: > 100 µM (inactive)
KM12
  GI50: 31.3 µM (inactive)
LOX IMVI
  GI50: 17.1 µM (inactive)
LXFL 529
  GI50: 27.8 µM (inactive)
M14
  GI50: 27.2 µM (inactive)
M19-MEL
  GI50: 11.5 µM (inactive)
MCF7
  GI50: 18.6 µM (inactive)
MDA-MB-231
  GI50: 19.5 µM (inactive)
MDA-MB-435
  GI50: 13.6 µM (inactive)
MDA-N
  GI50: 17.6 µM (inactive)
MOLT-4
  GI50: 19.3 µM (inactive)
Malme-3M
  GI50: 54.5 µM (inactive)
NCI-H226
  GI50: 40.6 µM (inactive)
NCI-H23
  GI50: 42.3 µM (inactive)
NCI-H460
  GI50: 50.9 µM (inactive)
NCI-H522
  GI50: 43.3 µM (inactive)
NCI/ADR-RES
  GI50: 39.4 µM (inactive)
OVCAR-3
  GI50: 19.6 µM (inactive)
OVCAR-4
  GI50: 5.45 µM (inactive)
OVCAR-5
  GI50: 42.5 µM (inactive)
OVCAR-8
  GI50: 30.8 µM (inactive)
PC-3
  GI50: 41.5 µM (inactive)
RPMI-8226
  GI50: 31 µM (inactive)
RXF 393
  GI50: 29.4 µM (inactive)
RXF 631
  GI50: > 100 µM (inactive)
SF-268
  GI50: 27 µM (inactive)
SF-295
  GI50: 29.8 µM (inactive)
SF-539
  GI50: 64.1 µM (inactive)
SK-MEL-28
  GI50: 50.7 µM (inactive)
SK-MEL-2
  GI50: 41.5 µM (inactive)
SK-MEL-5
  GI50: 22.5 µM (inactive)
SK-OV-3
  GI50: > 95.3 µM (inactive)
SN12C
  GI50: 15.5 µM (inactive)
SNB-19
  GI50: 46.9 µM (inactive)
SNB-75
  GI50: 30.8 µM (inactive)
SNB-78
  GI50: > 67.3 µM (inactive)
SR
  GI50: 18.5 µM (inactive)
SW-620
  GI50: 20 µM (inactive)
T47D
  GI50: 31.8 µM (inactive)
TK-10
  GI50: > 90.4 µM (inactive)
U-251
  GI50: 19.2 µM (inactive)
UACC-257
  GI50: > 68.2 µM (inactive)
UACC-62
  GI50: 20.1 µM (inactive)
UO-31
  GI50: > 71.8 µM (inactive)
XF498
  GI50: 17.3 µM (inactive)
